Assay results as given in PubChem BioAssay AID1259371 (The Scripps Research Institute Molecular Screening Center, 2018).
The source made the active and inactive calls. How the calls were made is not given here.

Molecular target: Microphthalmia-associated transcription factor (Homo sapiens) (UniProt O75030)
Assay: MITF inhibitors, potency by titration, dose response, biochemical, AlphaScreen, human (AID 1259371)
Settings: AlphaScreen biochemical MITF assay, signal inhibition

Sequence of Microphthalmia-associated transcription factor (Homo sapiens) (O75030 whole entry, looked up): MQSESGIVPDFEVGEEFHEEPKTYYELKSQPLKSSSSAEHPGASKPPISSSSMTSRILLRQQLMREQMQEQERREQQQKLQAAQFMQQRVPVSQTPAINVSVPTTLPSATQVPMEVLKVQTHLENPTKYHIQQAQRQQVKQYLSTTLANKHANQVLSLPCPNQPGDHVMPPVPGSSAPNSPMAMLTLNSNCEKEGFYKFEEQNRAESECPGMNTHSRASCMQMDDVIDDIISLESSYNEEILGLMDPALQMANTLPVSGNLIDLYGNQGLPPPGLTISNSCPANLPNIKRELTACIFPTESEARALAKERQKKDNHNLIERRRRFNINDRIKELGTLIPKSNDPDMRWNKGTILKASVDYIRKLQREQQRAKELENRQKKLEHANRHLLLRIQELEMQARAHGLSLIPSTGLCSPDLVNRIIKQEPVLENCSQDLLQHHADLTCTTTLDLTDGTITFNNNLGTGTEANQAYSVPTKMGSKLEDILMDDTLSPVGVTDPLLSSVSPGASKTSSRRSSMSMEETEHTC

SMILES: NC(=O)C1CCN(C(=O)c2cc(-c3ccco3)nc3ccccc23)CC1
- IC50: 0.0453 µM

SMILES: O=C(OC1CCOC1=O)c1cc(-c2ccco2)nc2ccccc12 (stereo not given)
- IC50: 0.338 µM

SMILES: COc1cccc(CN2CCN(C(=O)c3ccc(F)cc3)CC2)c1
- IC50: inactive

SMILES: N/C(=N\[N+](=O)[O-])N/N=C\c1ccc(-c2ccc(O)c(C(=O)O)c2)o1
- IC50: 0.129 µM

SMILES: O=[N+]([O-])c1c(Br)ccc2c1no[n+]2[O-]
- IC50: inactive

SMILES: C[C@@H](OCc1ccccc1)[C@@H]1NC(=O)[C@H]2CN(C(=O)NCc3ccccc3)CCN2C1=O
- IC50: inactive

SMILES: O=C(Nc1ccc(N2CCOCC2)cc1)c1ccc2nc(-c3cccs3)sc2c1
- IC50: inactive

SMILES: CCOc1cccc(OCC)c2c(C)[n+](C)c(C)c1-2
- IC50: 0.0582 µM

SMILES: COc1cccc(CN2CCC(CNc3ccc(-c4ccncc4)cc3)C2)c1 (stereo not given)
- IC50: 0.285 µM

SMILES: O=C(/C=C/c1ccco1)Nc1nnc(-c2ccco2)s1
- IC50: > 6.48 µM (inactive)

SMILES: O=C(O)c1cccc2c1C(=O)N(c1ccccc1)C2
- IC50: inactive

SMILES: O=C(CCCCC1SCC2NC(=O)NC21)NC1(c2ccc(F)cc2)CCCC1 (stereo not given)
- IC50: inactive

SMILES: O=C(Nc1cc(S(=O)(=O)O)cc2cc(S(=O)(=O)O)cc(O)c12)c1ccccc1
- IC50: 0.951 µM

SMILES: COc1cc(-c2ccnc(N)n2)ccc1NC(=O)[C@H]1COc2ccccc2O1
- IC50: inactive

SMILES: NC(=O)c1ccc2nc(-c3cccs3)sc2c1
- IC50: > 6.18 µM (inactive)

SMILES: Cc1cc(C(=O)O)ccc1-c1ccc(/C=C2/NC(=O)NC2=O)o1
- IC50: inactive

SMILES: Nc1cccc(N2C(=O)c3cc(S(=O)O)cc4c(N)c(S(=O)O)cc(c34)C2=O)c1
- IC50: inactive

SMILES: O=C(OCN1C(=O)c2ccccc2C1=O)c1cc2c(s1)CCC2
- IC50: 0.734 µM

SMILES: CN(C)CCNc1nc(C2COc3ccccc3O2)nc2ccc(-c3cn[nH]c3)cc12 (stereo not given)
- IC50: inactive

SMILES: CCc1ccc(NC(=O)CS(=O)CC(=O)NCCCc2ccccc2)cc1 (stereo not given)
- IC50: > 6.48 µM (inactive)

SMILES: Cc1ccc(C(=O)Nc2ccc([N+](=O)[O-])cn2)o1
- IC50: > 6.48 µM (inactive)

SMILES: O=C(c1ccc(=O)oc1)N1CCc2ccccc21
- IC50: inactive

SMILES: O=C(c1ccc2c(c1)C(=O)N(Cc1cccnc1)C2=O)c1ccc2c(c1)C(=O)N(Cc1cccnc1)C2=O
- IC50: inactive

SMILES: CN(N=O)c1cc(O)ccc1O
- IC50: 0.0987 µM

SMILES: O=C(O)c1cccc(-n2cccc2/C=C\[N+](=O)[O-])c1
- IC50: 0.271 µM

SMILES: O=C(Cn1ncn2cccc2c1=O)N1CCc2ccccc2C1
- IC50: > 6.48 µM (inactive)

SMILES: O=C(OC1CCCC1=O)c1ccc(Cl)c(S(=O)(=O)N2CCOCC2)c1 (stereo not given)
- IC50: inactive

SMILES: O=C(O)c1cc(S(=O)(=O)Nc2ccncc2)ccc1O
- IC50: inactive

SMILES: COc1cccc(COC(=O)Nc2cc(F)c(-c3cn[nH]c3)cc2OCCN(C)C)c1
- IC50: inactive

SMILES: CCOC(=O)C1C2NC(=S)N(CC)C1(C)Oc1ccc(Cl)cc12 (stereo not given)
- IC50: inactive

SMILES: O=C(O)c1ccccc1-c1ccc(/C=C/[N+](=O)[O-])o1
- IC50: 0.46 µM

SMILES: CCc1ccc(CN2CCN(C(C)C)CC2)cc1
- IC50: > 6.89 µM (inactive)

SMILES: O=C(NCc1cccnc1)c1cccc(-c2cccs2)c1
- IC50: > 6.64 µM (inactive)

SMILES: O=C(/C=C/c1ccco1)NCc1cccc(CNC(=O)/C=C/c2ccco2)c1
- IC50: 0.115 µM

SMILES: C=C1C(C(=O)NCc2ccco2)C1C(=O)NCc1ccco1 (stereo not given)
- IC50: 0.573 µM

SMILES: O=C(NCCc1ccc(O)cc1)c1ccnc(-c2cccs2)c1
- IC50: inactive

SMILES: CCOC(=O)Cc1[nH]nc2c1C1(C(=O)N(CC)c3ccccc31)C(C#N)=C(N)O2 (stereo not given)
- IC50: > 6.48 µM (inactive)

SMILES: COc1ccc(C[C@@H]2NC(=O)[C@H]3CN(C(=O)NCc4ccccc4)CCN3C2=O)cc1
- IC50: inactive

SMILES: Cc1[nH][nH]c(=O)c1C(c1ccccc1OCc1ccc(Br)cc1)c1c(C)[nH][nH]c1=O
- IC50: inactive

SMILES: O=C1NC(=S)N/C1=C\c1ccc([N+](=O)[O-])o1
- IC50: 0.239 µM

SMILES: Nc1cc(Br)cnc1N
- IC50: 0.0619 µM

SMILES: O=C(OC1CCCC1=O)c1ccc(N2CCCC2=O)cc1 (stereo not given)
- IC50: inactive

SMILES: C[C@H]1C(=O)N2CCN(C(=O)NCc3ccccc3)C[C@@H]2C(=O)N1C
- IC50: inactive

SMILES: Cc1cncc2c(S(=O)(=O)N3CC[C@@H](NC(=O)C(O)c4ccc(F)cc4F)C3)cccc12 (stereo not given in full)
- IC50: inactive

SMILES: O=C(/C=C/c1ccco1)NCCCCNC(=O)/C=C/c1ccco1
- IC50: 0.18 µM

SMILES: CCN1CCN(CCOCCOc2ccc(F)cc2)CC1
- IC50: > 6.48 µM (inactive)

SMILES: CCOC(=O)C1CCCN(Cc2cccc(Br)c2)C1 (stereo not given)
- IC50: > 6.48 µM (inactive)

SMILES: N#Cc1c(-c2ccc3c(c2)OCO3)nc(N2CCCCC2)[nH]c1=O
- IC50: inactive

SMILES: O=C(Cc1cccs1)N/N=C\C=C\c1ccco1
- IC50: 0.0855 µM

SMILES: CN(C)/C=C/C=C/C(=O)c1cccc(C(=O)/C=C/C=C/N(C)C)c1O
- IC50: 0.303 µM

SMILES: Cc1cccc(CN2CCN(C3CCC(C)CC3)CC2)c1 (stereo not given)
- IC50: > 5.54 µM (inactive)

SMILES: CN(C)c1ccc(O)c2c1C[C@H]1C[C@H]3[C@H](N(C)C)C(=O)C(C(N)=O)=C(O)[C@@]3(O)C(=O)C1=C2O
- IC50: 0.0297 µM

SMILES: O=C1N[C@H](CO)C(=O)N2CCN(C(=O)NCc3ccccc3)C[C@H]12
- IC50: 0.526 µM

SMILES: COC(=O)CN1C(=O)S/C(=C/c2ccc([N+](=O)[O-])o2)C1=O
- IC50: inactive

SMILES: C[C@@H](OCc1ccccc1)[C@@H]1NC(=O)[C@H]2CN(C(=O)NC3CCCCC3)CCN2C1=O
- IC50: inactive

SMILES: c1ccc2c(c1)ncn2CC1CCN(Cc2cn3ccccc3n2)CC1
- IC50: inactive

SMILES: COc1ccc2c(c1)CC(c1nc(Nc3ccc4cnccc4c3)c3ccccc3n1)CO2 (stereo not given)
- IC50: > 6.48 µM (inactive)

SMILES: O=C(NNC(=S)Nc1ccccc1)C(=O)NNC(=S)Nc1ccccc1
- IC50: inactive

SMILES: CCOc1ccc(CN2CCN(Cc3cccnc3)CC2)cc1
- IC50: > 5.78 µM (inactive)

SMILES: O=P(O)(O)C(O)(CCNC(=S)Nc1ccccc1)P(=O)(O)O
- IC50: inactive
